Where a name gives a salt, the structure may show the parent alone.

One test has as its system Acinetobacter baumannii ATCC 17978. As to the kind of experiment: Antimicrobial susceptibility testing: 90% growth inhibitory concentration (IC90) determination. The class given is cell-based. To be noted: 90% growth inhibitory concentration; Acinetobacter baumannii ATCC17978; Iso-Sensitest broth, OD 600 nm over 16h; read-out: ATCC17978 IC90. In short, it runs like this: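 Compounds serially twofold diluted (e.g. 50 to 0.097 μM final) in Iso-Sensitest broth, inoculated at ~5×10^(5) CFU/ml, incubated at 35±2° C. OD600 read every 20 minutes over 16h. IC90 taken as concentration inhibiting 90% of growth during logarithmic phase.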
`CCc1cc(Nc2nccn3c(-c4ccc(OC)c(F)c4F)cnc23)ccc1C(=O)NCCCNC(=O)CC[C@H](NC(=O)[C@@H](N)CCCCN)C(=O)O` [Example 403, N2-(L-lysyl)-N5-(3-(4-((3-(2,3-difluoro-4-methoxyphenyl)imidazo[1,2-a]pyrazin-8-yl)amino)-2-ethylbenzamido)propyl)-L-glutamine trihydrochloride]: the IC90 (in general, the concentration at which the effect reaches the 90% level) came out at 940 nM.

The test is the same for the next values; noted with them: Acinetobacter baumannii, ATCC17978, 16 h, 90% growth inhibitory concentration; Acinetobacter baumannii ATCC17978; Iso-Sensitest broth, OD 600 nm over 16h; read-out: ATCC17978 IC90.
On to `Cc1cc(Nc2nccn3c(-c4ccc(OC(F)F)cc4)cnc23)ccc1C(=O)N(C)CCC1CCN(CCCC(=O)O)CC1` [Example 443, 4-(4-(2-(4-((3-(4-(difluoromethoxy)phenyl)im-idazo[1,2-a]pyrazin-8-yl)amino)-N,2-dimethylbenzamido)ethyl)piperidin-1-yl)butanoic acid hydrochloride], for which the IC90 came out at 760 nM.

Take `COc1ccc(-c2cnc3c(Nc4ccc(C(=O)N(C)CCCC5OCC(N)CO5)c(C)c4)nccn23)cc1F` (stereo not shown) [Example 192, N-[3-(5-amino-1,3-dioxan-2-yl)propyl]-4-[[3-(3-fluoro-4-methoxyphenyl)imidazo[1,2-a]pyrazin-8-yl]amino]-N,2-dimethylbenzamide]: the concentration for an effect of 90% (IC90) turned out to be 340 nM.

Turning to `Cc1cc(Nc2nccn3c(-c4ccc(OC(F)F)cc4)cnc23)ccc1C(=O)NCCCCCN1CCOCC1` [Example 25, 4-((3-(4-(difluoromethoxy)phenyl)imidazo[1,2-a]pyrazin-8-yl)amino)-2-methyl-N-(5-morpholinopentyl) benzamide], the IC90 amounted to 160 nM.

Turning to `CCc1cc(Nc2nccn3c(-c4ccc(OC)c(F)c4F)cnc23)ccc1C(=O)NC1(CNC(=O)[C@@H](N)CCCCN)CC1` [Example 484, N-[1-[[[(2S)-2,6-diaminohexanoyl]amino]meth-yl]cyclopropyl]-4-[[3-(2,3-difluoro-4-methoxy-phenyl)imidazo[1,2-a]pyrazin-8-yl]amino]-2-ethyl-benzamide], the IC90 was 280 nM.

Take `CNCCN1CCc2cc(Nc3nccn4c(-c5ccc(OC)c(F)c5F)cnc34)ccc2C1=O` [Example 300, 6-[[3-(2,3-difluoro-4-methoxyphenyl)imidazo[1,2-a]pyrazin-8-yl]amino]-2-[2-(methylamino)ethyl]-3,4-dihydroisoquinolin-1-one;hydrochloride]: the IC90 was found to be 240 nM.

On to `CCc1cc(Nc2nccn3c(-c4ccc(OCC#CCOCCN)c(F)c4F)cnc23)ccc1C(=O)NCCCN` [Example 159, 4-[[3-[4-[4-(2-aminoethoxy)but-2-ynoxy]-2,3-difluoro-phenyl]imidazo[1,2-a]pyrazin-8-yl]amino]-N-(3-aminopropyl)-2-ethyl-benzamide], for which the 90% effect concentration (IC90) is 230 nM.

As for `CCc1cc(Nc2nccn3c(-c4ccc(OC)c(F)c4F)cnc23)ccc1C(=O)NCCCn1ccnc1` [Example 290, 4-[[3-(2,3-difluoro-4-methoxyphenyl)imidazo[1,2-a]pyrazin-8-yl]amino]-2-ethyl-N-(3-imidazol-1-ylpropyl)benzamide], the IC90 is 50 nM.

Turning to `CCc1cc(Nc2nccn3c(-c4ccc(Oc5ccccn5)c(F)c4F)cnc23)ccc1C(=O)NCCNC(=O)CCN` [Example 421, N-[2-(3-aminopropanoylamino)ethyl]-4-[[3-[2,3-difluoro-4-(2-pyridyloxy)phenyl]imidazo [1,2-a]pyrazin-8-yl]amino]-2-ethyl-benzamide; formic acid], the IC90 was determined as 440 nM.

Consider `COc1ccc(-c2cnc3c(Nc4ccc(C(=O)NCC5CCNCC5)c(C)c4)nccn23)cc1F` [Example 213, 4-[[3-(3-fluoro-4-methoxyphenyl)imidazo[1,2-a]pyrazin-8-yl]amino]-2-methyl-N-(piperidin-4-ylmethyl)benzamide;hydrochlo-ride], for which the IC90 stood at 660 nM.
